Test results reported in US20070049564A1 (Wyeth, priority 2005, published 2007).
Values after ≈ are worked out from the molar mass of the structure shown. Like-named read-outs stand apart in the source and are kept apart here.

Key:
E. coli GC 2236 = assay: MIC, broth microdilution; settings: Escherichia coli
E. coli GC 2233 = assay: MIC, broth microdilution; settings: Escherichia coli
E. coli GC 2234 = assay: MIC, broth microdilution; settings: Escherichia coli
Procedure: (§1) Antimicrobial susceptibility testing. The in vitro activities of the antibiotics are determined by the broth microdilution method as recommended by the National Committee for Clinical Laboratory Standards (NCCLS) (1). Mueller-Hinton II broth (MHBII)(BBL Cockeysville, Md.) is the medium employed in the testing procedures. Microtiter plates containing serial dilutions of each antimicrobial agent are inoculated with each organism to yield the appropriate density (10^5 CFU/ml) in a 100 μl final volume. The plates are incubated for 18-22 hours at 35° C. in ambient air.
(§2) Representative compounds were first incubated in mouse serum for an hour prior to the in vitro testing against a panel of selected gram-positive and gram-negative bacteria strains. All compounds were also pre-incubated in water for an hour prior to testing as control.

E. coli GC 2272 = assay: MIC, broth microdilution; settings: Escherichia coli
E. coli GC 6465 = assay: MIC, broth microdilution; settings: Escherichia coli
E. coli GC 1073 = assay: MIC, broth microdilution; settings: Escherichia coli
S. aureus GC 1131 = assay: MIC, broth microdilution; settings: Staphylococcus aureus
S. aureus GC 6466 = assay: MIC, broth microdilution; settings: Staphylococcus aureus
S. aureus GC 1079 = assay: MIC, broth microdilution; settings: Staphylococcus aureus
S. aureus GC 4536 = assay: MIC, broth microdilution; settings: Staphylococcus aureus
S. aureus GC 6469 = assay: MIC, broth microdilution; settings: Staphylococcus aureus
S. epidermidis GC 4935 = assay: MIC, broth microdilution; settings: Staphylococcus epidermidis
E. faecalis GC 4555 = assay: MIC, broth microdilution; settings: Enterococcus faecalis
E. faecalis GC 2265 = assay: MIC, broth microdilution; settings: Enterococcus faecalis
E. faecium GC 2243 = assay: MIC, broth microdilution; settings: Enterococcus faecium
S. pneumoniae+ GC 4465 = assay: MIC, broth microdilution; settings: Streptococcus pneumoniae
Procedure: as §1, §2

S. pyogenes GC 4563 = assay: MIC, broth microdilution; settings: Streptococcus pyogenes
c. albicans GC 3066 = assay: MIC, broth microdilution
E. coli = assay: Range of MIC for E. coli strains; settings: Escherichia coli
Staph. = assay: Range of MIC for Staph. strains, including MRSA; settings: Staphylococcus aureus

CCCN(CC(=O)Nc1cc(N(C)C)c2c(c1O)C(=O)C1=C(O)[C@]3(O)C(=O)C(C(N)=O)=C(O)[C@@H](N(C)C)[C@@H]3C[C@@H]1C2)C(=O)OCOC(=O)c1ccsc1 [Example 27, ({[(2-{[(5aR,6aS,7S,10aS)-9-(aminocarbonyl)-4,7-bis(dimethylamino)-1,8,10a,11-tetrahydroxy-10,12-dioxo-5,5a,6,6a,7,10,10a,12-octahydrotetracen-2-yl]amino}-2-oxoethyl)(propyl)amino]carbonyl}oxy)methyl thiophene-3-carboxylate]
MIC (E. coli GC 2236; GC2236, read-out: MINIMAL INHIBITORY CONCENTRATION MIC, pre-incubated in Mouse Serum): 0.5 µg/mL (≈ 0.662 µM)
MIC (E. coli GC 2236; GC2236, read-out: MINIMAL INHIBITORY CONCENTRATION MIC, pre-incubated in Water): 64 µg/mL (≈ 84.7 µM)
MIC (E. coli GC 2233; GC2233, read-out: MINIMAL INHIBITORY CONCENTRATION MIC, pre-incubated in Mouse Serum): 0.5 µg/mL (≈ 0.662 µM)
MIC (E. coli GC 2233; GC2233, read-out: MINIMAL INHIBITORY CONCENTRATION MIC, pre-incubated in Water): 64 µg/mL (≈ 84.7 µM)
MIC (E. coli GC 2234; GC2234, read-out: MINIMAL INHIBITORY CONCENTRATION MIC, pre-incubated in Mouse Serum): 0.5 µg/mL (≈ 0.662 µM)
MIC (E. coli GC 2234; GC2234, read-out: MINIMAL INHIBITORY CONCENTRATION MIC, pre-incubated in Water): 64 µg/mL (≈ 84.7 µM)
MIC (E. coli GC 2272; GC2272, read-out: MINIMAL INHIBITORY CONCENTRATION MIC, pre-incubated in Mouse Serum): 0.5 µg/mL (≈ 0.662 µM)
MIC (E. coli GC 2272; GC2272, read-out: MINIMAL INHIBITORY CONCENTRATION MIC, pre-incubated in Water): 32 µg/mL (≈ 42.3 µM)
MIC (E. coli GC 6465; GC6465, read-out: MINIMAL INHIBITORY CONCENTRATION MIC, pre-incubated in Mouse Serum): 4 µg/mL (≈ 5.29 µM)
MIC (E. coli GC 6465; GC6465, read-out: MINIMAL INHIBITORY CONCENTRATION MIC, pre-incubated in Water): > 64 µg/mL
MIC (E. coli GC 1073; GC1073, read-out: MINIMAL INHIBITORY CONCENTRATION MIC, pre-incubated in Mouse Serum): 0.5 µg/mL (≈ 0.662 µM)
MIC (E. coli GC 1073; GC1073, read-out: MINIMAL INHIBITORY CONCENTRATION MIC, pre-incubated in Water): > 64 µg/mL
MIC (S. aureus GC 1131; GC1131, read-out: MINIMAL INHIBITORY CONCENTRATION MIC, pre-incubated in Mouse Serum): 0.12 µg/mL (≈ 0.159 µM)
MIC (S. aureus GC 1131; GC1131, read-out: MINIMAL INHIBITORY CONCENTRATION MIC, pre-incubated in Water): 0.25 µg/mL (≈ 0.331 µM)
MIC (S. aureus GC 6466; GC6466, read-out: MINIMAL INHIBITORY CONCENTRATION MIC, pre-incubated in Mouse Serum): 0.12 µg/mL (≈ 0.159 µM)
MIC (S. aureus GC 6466; GC6466, read-out: MINIMAL INHIBITORY CONCENTRATION MIC, pre-incubated in Water): 0.25 µg/mL (≈ 0.331 µM)
MIC (S. aureus GC 1079; GC1079, read-out: MINIMAL INHIBITORY CONCENTRATION MIC, pre-incubated in Mouse Serum): 1 µg/mL (≈ 1.32 µM)
MIC (S. aureus GC 1079; GC1079, read-out: MINIMAL INHIBITORY CONCENTRATION MIC, pre-incubated in Water): 2 µg/mL (≈ 2.65 µM)
MIC (S. aureus GC 4536; GC4536, read-out: MINIMAL INHIBITORY CONCENTRATION MIC, pre-incubated in Mouse Serum): 0.12 µg/mL (≈ 0.159 µM)
MIC (S. aureus GC 4536; GC4536, read-out: MINIMAL INHIBITORY CONCENTRATION MIC, pre-incubated in Water): 0.12 µg/mL (≈ 0.159 µM)
MIC (S. aureus GC 6469; GC6469, read-out: MINIMAL INHIBITORY CONCENTRATION MIC, pre-incubated in Mouse Serum): 1 µg/mL (≈ 1.32 µM)
MIC (S. aureus GC 6469; GC6469, read-out: MINIMAL INHIBITORY CONCENTRATION MIC, pre-incubated in Water): 2 µg/mL (≈ 2.65 µM)
MIC (S. epidermidis GC 4935; GC4935, read-out: MINIMAL INHIBITORY CONCENTRATION MIC, pre-incubated in Mouse Serum): 0.25 µg/mL (≈ 0.331 µM)
MIC (S. epidermidis GC 4935; GC4935, read-out: MINIMAL INHIBITORY CONCENTRATION MIC, pre-incubated in Water): 1 µg/mL (≈ 1.32 µM)
MIC (E. faecalis GC 4555; GC4555, read-out: MINIMAL INHIBITORY CONCENTRATION MIC, pre-incubated in Mouse Serum): 0.25 µg/mL (≈ 0.331 µM)
MIC (E. faecalis GC 4555; GC4555, read-out: MINIMAL INHIBITORY CONCENTRATION MIC, pre-incubated in Water): 1 µg/mL (≈ 1.32 µM)
MIC (E. faecalis GC 2265; GC2265, read-out: MINIMAL INHIBITORY CONCENTRATION MIC, pre-incubated in Mouse Serum): 1 µg/mL (≈ 1.32 µM)
MIC (E. faecalis GC 2265; GC2265, read-out: MINIMAL INHIBITORY CONCENTRATION MIC, pre-incubated in Water): 2 µg/mL (≈ 2.65 µM)
MIC (E. faecium GC 2243; GC2243, read-out: MINIMAL INHIBITORY CONCENTRATION MIC, pre-incubated in Mouse Serum): 0.12 µg/mL (≈ 0.159 µM)
MIC (E. faecium GC 2243; GC2243, read-out: MINIMAL INHIBITORY CONCENTRATION MIC, pre-incubated in Water): 0.25 µg/mL (≈ 0.331 µM)
MIC (S. pneumoniae+ GC 4465; read-out: MINIMAL INHIBITORY CONCENTRATION MIC, pre-incubated in Mouse Serum): 1 µg/mL (≈ 1.32 µM)
MIC (S. pneumoniae+ GC 4465; read-out: MINIMAL INHIBITORY CONCENTRATION MIC, pre-incubated in Water): 2 µg/mL (≈ 2.65 µM)
MIC (S. pyogenes GC 4563; GC4563, read-out: MINIMAL INHIBITORY CONCENTRATION MIC, pre-incubated in Mouse Serum): < 0.06 µg/mL
MIC (S. pyogenes GC 4563; GC4563, read-out: MINIMAL INHIBITORY CONCENTRATION MIC, pre-incubated in Water): < 0.06 µg/mL
MIC (c. albicans GC 3066; Candida albicans, GC3066, read-out: MINIMAL INHIBITORY CONCENTRATION MIC): > 64 µg/mL
MINIMAL INHIBITORY CONCENTRATION MIC (c. albicans GC 3066; pre-incubated in Water): >64 UG/ML
MIC (E. coli; 20 h, read-out: Range of MIC, E. coli (Mouse Serum)): 0.5 to 1 µg/mL (≈ 0.662 to 1.32 µM)
MIC (E. coli; read-out: Minimum inhibitory concentration (MIC), E. coli (Human Serum)): 4 to 16 µg/mL (≈ 5.29 to 21.2 µM)
MIC (E. coli; read-out: Range of MIC, E. coli (mouse serum)): 0.5 to 1 µg/mL (≈ 0.662 to 1.32 µM)
MIC (Staph.; MRSA, read-out: Range of MIC, Staph (Mouse Serum)): 0.12 to 2 µg/mL (≈ 0.159 to 2.65 µM)
MIC (Staph.; MRSA, read-out: Range of MIC, Staph (Water)): 0.12 to 2 µg/mL (≈ 0.159 to 2.65 µM)
MIC (Staph.; MRSA, read-out: Range of MIC, Staph. (mouse serum)): 0.12 to 2 µg/mL (≈ 0.159 to 2.65 µM)
MIC (Staph.; MRSA, read-out: Range of MIC, Staph. (water)): 0.12 to 2 µg/mL (≈ 0.159 to 2.65 µM)
MIC (Staph.; read-out: Minimum inhibitory concentration (MIC), Staph (Human Serum)): 0.25 to 2 µg/mL (≈ 0.331 to 2.65 µM)
MIC (Staph.; read-out: Minimum inhibitory concentration (MIC), Staph (Water)): 0.5 to 4 µg/mL (≈ 0.662 to 5.29 µM)
